Entries after “also recorded” stand apart in the source; their conditions may differ.
Key:
[1] = tested on: HCV gt1a replicon; assay: HCV replicon assay, gt1a; format: cell-based, hepatitis C virus
[2] = tested on: HCV gt1b replicon; assay: HCV replicon assay, gt1b; format: cell-based, hepatitis C virus; settings: for potency against gt1b compared with daclatasvir (1), in words: vs 1

SMILES: COC(=O)N[C@H]1CCC[C@@H]2CC[C@@H](c3ncc(-c4ccc(-c5ccc(-c6cnc([C@@H]7CCCN7C(=O)[C@@H](NC(=O)OC)C(C)C)[nH]6)cc5)cc4)[nH]3)N2C1=O [Compound 5]
- times less potent against gt1a than 1 ([1]; vs daclatasvir (1)): ~6
- potency against gt1b compared with daclatasvir (1), in words [2]: nearly equipotent; also recorded: essentially equipotent

SMILES: COC(=O)N[C@H]1CCC[C@H]2CC[C@@H](c3ncc(-c4ccc(-c5ccc(-c6cnc([C@@H]7CCCN7C(=O)[C@@H](NC(=O)OC)C(C)C)[nH]6)cc5)cc4)[nH]3)N2C1=O [Compound 2]
- potency decrease against gt1a compared with daclatasvir (1) ([1]; vs 1): ~221 fold
- potency against gt1b compared with daclatasvir (1), in words [2]: decreased slightly

SMILES: COC(=O)N[C@H](C(=O)N1CCC[C@H]1c1ncc(-c2ccc(-c3ccc(-c4cnc([C@@H]5CC[C@H]6CCC[C@@H](NC(=O)OC)C(=O)N65)[nH]4)cc3)cc2)[nH]1)C(C)C [Compound 4]
- gt1a potency regained compared with 2 ([1]; vs 2): ~27 fold
- gt1b potency regained compared with 2 ([2]; vs 2): ~2 fold

SMILES: COC(=O)N[C@H](C(=O)N1CC2(C[C@H]1c1ncc(-c3ccc(-c4ccc(-c5cnc([C@@H]6CC[C@H]7CCC[C@H](N(C)C)C(=O)N76)[nH]5)cc4)cc3)[nH]1)OCCO2)C(C)C [Compound 13]
- less potent than 5 against gt1a ([1]; vs 5): 16 fold

— publication PMC8591741 (ACS Medicinal Chemistry Letters, 2021)
